From ChEMBL document CHEMBL1201862, “PubChem BioAssay data set” (2004)
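Cultured in 96-well plates, cells were exposed to test compound for 48 hours across five concentrations. Abbreviation: GI50, concentration required for 50% inhibition of growth.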 Activity calls are given as the source filed them. No stated cut-off is given here; in the data, active = GI50 up to about 1.1 µM and inactive = higher.

What was measured:
Test in all cases: DTP human tumour cell line panel, 48 h
786-0 = tested on: 786-0
A498 = tested on: A498
A549 = tested on: A549
ACHN = tested on: ACHN
BT-549 = tested on: BT-549
CAKI-1 = tested on: CAKI-1
CCRF-CEM = tested on: CCRF-CEM
COLO 205 = tested on: COLO 205
DU-145 = tested on: DU-145
EKVX = tested on: EKVX
HCC 2998 = tested on: HCC 2998
HCT-116 = tested on: HCT-116
HCT-15 = tested on: HCT-15
HL-60 = tested on: HL-60
HOP-62 = tested on: HOP-62
HOP-92 = tested on: HOP-92
HT-29 = tested on: HT-29
Hs-578T = tested on: Hs-578T
IGROV-1 = tested on: IGROV-1
K562 = tested on: K562
KM12 = tested on: KM12
LOX IMVI = tested on: LOX IMVI
M14 = tested on: M14
MCF7 = tested on: MCF7
MDA-MB-231 = tested on: MDA-MB-231
MDA-MB-435 = tested on: MDA-MB-435
MDA-N = tested on: MDA-N
Malme-3M = tested on: Malme-3M
NCI-H226 = tested on: NCI-H226
NCI-H23 = tested on: NCI-H23
NCI-H460 = tested on: NCI-H460
NCI-H522 = tested on: NCI-H522
NCI/ADR-RES = tested on: NCI/ADR-RES
OVCAR-3 = tested on: OVCAR-3
OVCAR-4 = tested on: OVCAR-4
OVCAR-5 = tested on: OVCAR-5
OVCAR-8 = tested on: OVCAR-8
PC-3 = tested on: PC-3
RPMI-8226 = tested on: RPMI-8226
RXF 393 = tested on: RXF 393
SF-268 = tested on: SF-268
SF-295 = tested on: SF-295
SF-539 = tested on: SF-539
SK-MEL-28 = tested on: SK-MEL-28
SK-MEL-2 = tested on: SK-MEL-2
SK-MEL-5 = tested on: SK-MEL-5
SK-OV-3 = tested on: SK-OV-3
SN12C = tested on: SN12C
SNB-19 = tested on: SNB-19
SNB-75 = tested on: SNB-75
SR = tested on: SR
SW-620 = tested on: SW-620
T47D = tested on: T47D
TK-10 = tested on: TK-10
U-251 = tested on: U-251
UACC-257 = tested on: UACC-257
UACC-62 = tested on: UACC-62
UO-31 = tested on: UO-31

## CC(=O)n1cc(C2CC23N=C(c2ccccc2)OC3=O)c2ccccc21 (stereo not drawn)
786-0
  GI50: 14.8 µM (inactive)
A498
  GI50: 22.6 µM (inactive)
A549
  GI50: 21.7 µM (inactive)
ACHN
  GI50: 17.7 µM (inactive)
BT-549
  GI50: 14.2 µM (inactive)
CAKI-1
  GI50: 15.8 µM (inactive)
CCRF-CEM
  GI50: 1.12 µM (inactive)
COLO 205
  GI50: 18.4 µM (inactive)
DU-145
  GI50: 16 µM (inactive)
EKVX
  GI50: 21.8 µM (inactive)
HCC 2998
  GI50: 13.1 µM (inactive)
HCT-116
  GI50: 14.4 µM (inactive)
HCT-15
  GI50: 20.3 µM
HL-60
  GI50: 2.04 µM (inactive)
HOP-62
  GI50: 21.4 µM (inactive)
HOP-92
  GI50: 22.1 µM (inactive)
HT-29
  GI50: 17.9 µM (inactive)
Hs-578T
  GI50: 24.1 µM (inactive)
IGROV-1
  GI50: 16.8 µM (inactive)
K562
  GI50: 13.7 µM (inactive)
KM12
  GI50: 20.2 µM (inactive)
LOX IMVI
  GI50: 16 µM (inactive)
M14
  GI50: 16.2 µM (inactive)
MCF7
  GI50: 19.1 µM (inactive)
MDA-MB-231
  GI50: 20.8 µM (inactive)
MDA-MB-435
  GI50: 21.1 µM (inactive)
MDA-N
  GI50: 23.9 µM (inactive)
Malme-3M
  GI50: 20.6 µM (inactive)
NCI-H226
  GI50: 23.6 µM (inactive)
NCI-H23
  GI50: 16.5 µM (inactive)
NCI-H460
  GI50: 22.4 µM (inactive)
NCI-H522
  GI50: 15.3 µM (inactive)
NCI/ADR-RES
  GI50: 18.2 µM (inactive)
OVCAR-3
  GI50: 18 µM (inactive)
OVCAR-4
  GI50: 16.3 µM (inactive)
OVCAR-5
  GI50: 22 µM (inactive)
OVCAR-8
  GI50: 16.6 µM (inactive)
PC-3
  GI50: 17.8 µM (inactive)
RPMI-8226
  GI50: 7.87 µM (inactive)
RXF 393
  GI50: 16.3 µM (inactive)
SF-268
  GI50: 18.3 µM (inactive)
SF-295
  GI50: 36.7 µM (inactive)
SF-539
  GI50: 19.5 µM (inactive)
SK-MEL-28
  GI50: 19.7 µM (inactive)
SK-MEL-2
  GI50: 21.5 µM (inactive)
SK-MEL-5
  GI50: 17.1 µM (inactive)
SK-OV-3
  GI50: 49.9 µM (inactive)
SN12C
  GI50: 14.7 µM (inactive)
SNB-19
  GI50: 31.3 µM (inactive)
SNB-75
  GI50: 19 µM (inactive)
SR
  GI50: 10.6 µM (inactive)
SW-620
  GI50: 19.8 µM (inactive)
T47D
  GI50: 34.9 µM (inactive)
TK-10
  GI50: 20 µM (inactive)
U-251
  GI50: 18.1 µM (inactive)
UACC-257
  GI50: 15.7 µM (inactive)
UACC-62
  GI50: 16.9 µM (inactive)
UO-31
  GI50: 15.5 µM (inactive)
